From patent publication US8461328B2, “Tricyclic heterocyclic compounds, compositions and methods of use thereof” (Genentech, Inc., priority 2010, dated 2013)

Assays:
Assay type in all cases: biochemical
[1] = target: T1, TYK2 (Homo sapiens, UniProt P29597); assay: TYK2 inhibition (Table 4)
T1 construct: made in house; host or cells: SF9 insect cells (baculovirus)
T1 sequence (P29597 873-1187): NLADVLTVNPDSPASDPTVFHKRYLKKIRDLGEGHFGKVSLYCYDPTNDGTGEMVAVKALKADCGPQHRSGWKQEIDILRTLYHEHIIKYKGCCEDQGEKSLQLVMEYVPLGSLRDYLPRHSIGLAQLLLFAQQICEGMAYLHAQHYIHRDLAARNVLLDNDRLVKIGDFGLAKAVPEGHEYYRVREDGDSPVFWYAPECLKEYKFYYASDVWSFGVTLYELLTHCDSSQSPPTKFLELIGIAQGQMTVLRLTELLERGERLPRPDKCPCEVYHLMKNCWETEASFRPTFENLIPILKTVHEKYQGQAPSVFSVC

[2] = target: T2, JAK2 (Homo sapiens, UniProt O60674); assay: JAK2 inhibition (Table 4); conditions: read-out: JAK2 Ki
T2 construct: made in house; host or cells: SF9 insect cells (baculovirus)
T2 sequence (O60674 812-1132): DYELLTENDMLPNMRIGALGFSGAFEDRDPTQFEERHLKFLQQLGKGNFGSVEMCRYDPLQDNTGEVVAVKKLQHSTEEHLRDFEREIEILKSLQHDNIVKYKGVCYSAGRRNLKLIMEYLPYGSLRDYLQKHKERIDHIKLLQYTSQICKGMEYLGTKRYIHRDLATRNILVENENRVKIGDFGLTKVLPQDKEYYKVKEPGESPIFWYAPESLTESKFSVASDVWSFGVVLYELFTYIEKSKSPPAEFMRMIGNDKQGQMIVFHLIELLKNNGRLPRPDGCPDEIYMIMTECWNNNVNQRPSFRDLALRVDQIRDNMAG

[3] = target: T3, JAK1 (Homo sapiens, UniProt P23458); assay: JAK1 inhibition (Table 4); conditions: read-out: JAK1 Ki
T3 construct: made in house; host or cells: SF9 insect cells (baculovirus)
T3 sequence (P23458 852-1154): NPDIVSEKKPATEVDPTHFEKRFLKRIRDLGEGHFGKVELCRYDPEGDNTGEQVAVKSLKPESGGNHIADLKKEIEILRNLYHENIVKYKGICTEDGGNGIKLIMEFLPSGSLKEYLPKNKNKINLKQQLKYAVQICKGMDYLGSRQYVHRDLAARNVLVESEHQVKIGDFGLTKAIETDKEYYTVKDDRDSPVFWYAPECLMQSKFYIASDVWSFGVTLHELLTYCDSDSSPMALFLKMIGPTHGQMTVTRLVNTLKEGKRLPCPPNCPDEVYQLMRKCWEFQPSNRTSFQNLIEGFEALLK

[4] = target: T4, JAK3 (Homo sapiens, UniProt P52333); assay: JAK3 inhibition (Table 4); conditions: read-out: JAK3 Ki
T4 construct: made in house; host or cells: SF9 insect cells (baculovirus)
T4 sequence (P52333 783-1124): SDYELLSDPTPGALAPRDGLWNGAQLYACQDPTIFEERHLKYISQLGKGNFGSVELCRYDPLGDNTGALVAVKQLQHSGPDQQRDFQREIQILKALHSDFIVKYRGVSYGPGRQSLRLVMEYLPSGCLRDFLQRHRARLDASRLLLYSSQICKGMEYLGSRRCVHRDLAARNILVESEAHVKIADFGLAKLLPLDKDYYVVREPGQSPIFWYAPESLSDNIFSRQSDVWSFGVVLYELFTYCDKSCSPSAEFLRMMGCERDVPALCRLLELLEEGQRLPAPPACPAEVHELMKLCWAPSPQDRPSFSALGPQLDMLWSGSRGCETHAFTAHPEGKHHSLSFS

SMILES | Ki [1] [nM] | Ki [2] [nM] | Ki [3] [nM] | Ki [4] [nM]
O[C@H]1CC[C@H](n2cnc3cnc4[nH]ccc4c32)C1 [Example 712, (1S,3S)-3-(6H-1,2,3,5,6-Tetraaza-as-indacen-1-yl)-cyclopentanol] | 114 | 44.9 | 15.3 | 29.7
Cc1nc2cnc3[nH]ccc3c2n1[C@H]1CC[C@@H](NCCC#N)C1 [Example 723, 3-[(1R,3S)-3-(2-Methyl-6H-1,3,5,6-tetraaza-as-indacen-1-yl)-cyclopentylamino]-propionitrile] | 94.6 | 29.7 | 6.22 | 4.88
Cc1nc2cnc3[nH]ccc3c2n1[C@@H]1CC[C@@H](NCCC#N)C1 [Example 724, 3-[(1R,3R)-3-(2-Methyl-6H-1,3,5,6-tetraaza-as-indacen-1-yl)-cyclopentylamino]-propionitrile] | 78.9 | 24.3 | 6.27 | 16
Cc1nc2cnc3[nH]ccc3c2n1[C@@H]1CC[C@@H](NC(C)CC#N)C1 (stereo partly drawn) [Example 725, 3-[(1R,3R)-3-(2-Methyl-6H-1,3,5,6-tetraaza-as-indacen-1-yl)-cyclopentylamino]-butyronitrile] | 211 | 49.5 | 22.1 | 32.5
CC(C)(C)OC(=O)N[C@@H]1CC[C@@H](n2nnc3cnc4[nH]ccc4c32)C1 [Example 727, [(1R,3R)-3-(6H-1,2,3,5,6-Pentaaza-as-indacen-1-yl)-cyclopentyl]-carbamic acid tert-butyl ester] | 143 | 7.73 | 1.76 | 74.4
Cc1nc2cnc3[nH]ccc3c2n1C1(C)CCN(S(=O)(=O)c2cccnc2)CC1 [Example 740, 2-Methyl-1-[4-methyl-1-(pyridine-3-sulfonyl)-piperidinyl-4-yl]-1,6-dihydro-1,3,5,6-tetraaza-as-indacene] | 296 | 97.7 | 21.7 | 404
Cc1nc2cnc3[nH]ccc3c2n1C1(C)CCN(C(=O)CC#N)CC1 [Example 741, 3-[4-Methyl-4-(2-methyl-6H-1,3,5,6-tetraaza-as-indacen-1-yl)-piperidin-1-yl]-3-oxo-propionitrile] | 568 | 528 | 103 | 1130
O=C(NC1CCC(n2cnc3cnc4[nH]ccc4c32)CC1)OCc1cccnc1 (centres unmarked) [Example 744, [4-(6H-1,3,5,6-tetraaza-as-indacen-1-yl)-cyclohexyl]-carbamic acid pyridin-3-ylmethyl ester] | 86 | 17.8 | 7.15 | 89.2
CN(CC(F)(F)F)C(=O)NC1CCC(n2cnc3cnc4[nH]ccc4c32)CC1 (centres unmarked) [Example 745, 1-methyl-3-[4-(6H-1,3,5,6-tetraaza-as-indacen-1-yl)-cyclohexyl]-1-(2,2,2-trifluoro-ethyl)-urea] | 113 | 11.6 | 3.22 | 37.1
Cc1nc2cnc3[nH]ccc3c2n1C1CCC(NC(=O)N2CC(F)(F)C2)CC1 (centres unmarked) [Example 748, 3,3-difluoro-azetidine-1-carboxylic acid [4-(2-methyl-6H-1,3,5,6-tetraaza-as-indacen-1-yl)-cyclohexyl]-amide] | 444 | 36.6 | 10.7 | 150
Cc1nc2cnc3[nH]ccc3c2n1C1CCC(NC(=O)N(C)CC(F)(F)F)CC1 (centres unmarked) [Example 749, 1-methyl-3-[4-(2-methyl-6H 1,3,5,6-tetraaza-as-indacen-1-yl)-cyclohexyl]-1-(2,2,2-trifluoro-ethyl)-urea] | 177 | 15.8 | 2.83 | 8.96
Cc1nc2cnc3[nH]ccc3c2n1C1CCC(NC(=O)N(C)CC(F)F)CC1 (centres unmarked) [Example 750, 1-(2,2-difluoro-ethyl)-1-methyl-3-[4-(2-methyl-6H-1,3,5,6-tetraaza-as-indacen-1-yl)-cyclohexyl]-urea] | 130 | 22.1 | 4.74 | 17.6
CNC(=O)OC1CCC(n2c(C)nc3cnc4[nH]ccc4c32)CC1 (centres unmarked) [Example 751, methyl-carbamic acid 4-(2-methyl-6H-1,3,5,6-tetraaza-as-indacen-1-yl)-cyclohexyl ester] | 83.9 | 27.9 | 7.83 | 79.4
CC1(n2cnc3cnc4[nH]ccc4c32)CCN(S(=O)(=O)c2cccnc2)CC1 [Example 753, 1-[4-Methyl-1-(pyridine-3-sulfonyl)-piperidin-4-yl]-1,6-dihydro-1,3,5,6-tetraaza-as-indacene] | 289 | 76.1 | 18.4 | 296
CC1(n2cnc3cnc4[nH]ccc4c32)CCN(Cc2cccc(C#N)c2)CC1 [Example 754, 3-[4-Methyl-4-(6H-1,3,5,6-tetraaza-as-indacen-1-yl)-piperidin-1-ylmethyl]-benzonitrile] | 2370 | 286 | 40.4 | 961

These reach a lower Ki [1]. Values come first.

Ki [1] [nM] | Ki [2] [nM] | Ki [3] [nM] | Ki [4] [nM] | SMILES
75.4 | 21.3 | 13.1 | 183 | O=C(NC1CCC(n2cnc3cnc4[nH]ccc4c32)CC1)N1CCC1 (centres unmarked) [Example 746, azetidine-1-carboxylic acid [4-(6H-1,3,5,6-tetraaza-as-indacen-1-yl)-cyclohexyl]-amide]
74.3 | 23.3 | 10.6 | 167 | OC[C@]1(O)CC[C@@H](n2nnc3cnc4[nH]ccc4c32)CC1 [Example 716, Cis-1-Hydroxymethyl-4-(6H-1,2,3,5,6-pentaaza-as-indacen-1-yl)-cyclohexanol]
72.7 | 11.7 | 4.22 | 52.5 | CN(CC(F)F)C(=O)NC1CCC(n2cnc3cnc4[nH]ccc4c32)CC1 (centres unmarked) [Example 747, 1-(2,2-difluoro-ethyl)-1-methyl-3-[4-(6H-1,3,5,6-tetraaza-as-indacen-1-yl)-cyclohexyl]-urea]
70.3 | 36.9 | 14.1 | 15.8 | O[C@@H]1CC[C@@H](n2cnc3cnc4[nH]ccc4c32)C1 [Example 711, (1R,3R)-3-(6H-1,2,3,5,6-Tetraaza-as-indacen-1-yl)-cyclopentanol]
62.7 | 15 | 8.14 | 202 | C[C@]1(O)CC[C@H](n2nnc3cnc4[nH]ccc4c32)CC1 [Example 713, Trans-1-Methyl-4-(6H-1,2,3,5,6-pentaaza-as-indacen-1-yl)-cyclohexanol]
58.2 | 16.9 | 11.5 | 109 | OC[C@]1(O)CC[C@H](n2nnc3cnc4[nH]ccc4c32)CC1 [Example 715, Trans-1-Hydroxymethyl-4-(6H-1,2,3,5,6-pentaaza-as-indacen-1-yl)-cyclohexanol]
54.5 | 18.3 | 6.6 | 88.1 | Cc1nc2cnc3[nH]ccc3c2n1[C@@H]1CC[C@@H](NCC(F)(F)F)C1 [Example 720, [(1R,3R)-3-(2-Methyl-6H-1,3,5,6-tetraaza-as-indacen-1-yl)-cyclopentyl]-(2,2,2-trifluoro-ethyl)-amine]
50.6 | 34.3 | 6.85 | 45 | O[C@@H]1CC[C@H](n2cnc3cnc4[nH]ccc4c32)C1 [Example 710, (1R,3S)-3-(6H-1,2,3,5,6-Tetraaza-as-indacen-1-yl)-cyclopentanol]
44.4 | 24 | 6.03 | 56.3 | O[C@H]1CC[C@@H](n2cnc3cnc4[nH]ccc4c32)C1 [Example 709, (1S,3R)-3-(6H-1,2,3,5,6-Tetraaza-as-indacen-1-yl)-cyclopentanol]
30.4 | 23.2 | 4.07 | 22 | Cc1nc2cnc3[nH]ccc3c2n1[C@H]1CC[C@@H](NCC(F)(F)F)C1 [Example 719, [(1R,3S)-3-(2-Methyl-6H-1,3,5,6-tetraaza-as-indacen-1-yl)-cyclopentyl]-(2,2,2-trifluoro-ethyl)-amine]
28.6 | 9.89 | 5.29 | 105 | C[C@]1(O)CC[C@@H](n2nnc3cnc4[nH]ccc4c32)CC1 [Example 714, Cis-1-Methyl-4-(6H-1,2,3,5,6-pentaaza-as-indacen-1-yl)-cyclohexanol]
19.2 | 5.67 | 1.52 | 54.6 | COC(=O)N[C@@H]1CC[C@@H](n2c(C)nc3cnc4[nH]ccc4c32)C1 [Example 735, [(1R,3R)-3-(2-Methyl-6H-1,3,5,6-tetraaza-as-indacen-1-yl)-cyclopentyl]-carbamic acid methyl ester]
12.4 | 5.54 | 0.58 | 9.13 | Cc1nc2cnc3[nH]ccc3c2n1[C@H]1CC[C@@H](NC(=O)CC(F)(F)F)C1 [Example 731, 3,3,3-Trifluoro-N-[(1R,3S)-3-(2-methyl-6H-1,3,5,6-tetraaza-as-indacen-1-yl)-cyclopentyl]-propionamide]
1.23 | 3.68 | 0.59 | 14.1 | C[C@@H](O)c1nc2cnc3[nH]ccc3c2n1C1CCC(CC#N)CC1 (stereo partly drawn) [Example 743, {4-[2-((R)-1-Hydroxy-ethyl)-6H-1,3,5,6-tetraaza-as-indacen-1-yl]cyclohexyl}acetonitrile]
